Columns and labels:
Type in all cases: physicochemical
[1] = Chemical compatibility of the compound of formula (I) with polymers: melt extrudates analysed by HPLC for total impurity; settings: hot melt extrusion
From the text: Assay, Degradation Products/Impurities by HPLC
Principle: RP HPLC with UV detection
• Acetonitrile (HPLC grade, e.g. Merck) • Water (e.g. from Milli-Q instrument) • Methanol (Analytical grade, e.g. Sigma-Aldrich or equivalent) • Solvent: Water/acetonitrile 40/60 (v/v)
• Apparatus: e.g. HP 1290 (UPLC) • Column: Waters Acquity BEH C18 (Length 100 mm, internal diameter 2.1 mm or equivalent column and particle size 1.7 μm)
• Mobile Phase: • A: Water/Acetonitrile/TFA (95:5:0.05 v/v/v) • B: Water/Acetonitrile/TFA (5:95:0.05 v/v/v)
Column temperature: 30° C. Auto-sampler temperature: Ambient Needle wash: Methanol/water 80/20 (v/v) Injection volume: • 2 μl of the test and reference solutions, equivalent to about • 0.6 μg of drug substance compound of formula (I) in the reference solution Run time: 18 min […]
The compatibility of the compound of formula (I) with various polymers was tested by preparing melt extrudates according to the manufacturing process as described in example 1 and analyzing the resulting melt extrudates by HPLC to determine the amount of degradation or related products (“impurities”) of the compound of formula (I). […] The amount of total impurities was assessed according to the guideline that the sum of specified and unspecified impurities (herein referred to as total impurity) is preferably not more than (NMT) 0.5%. […]

[2] = Kinetic solubility of melt extrudates (rotating bottle); settings: aqueous buffer; melt extrudates equivalent to 100 mg compound of formula (I), pH 6.8 phosphate buffer, rotating bottle 50 rpm, 37° C.
Method: • Principle: Measurement of the amount of drug substance solubilized using rotating bottle apparatus. Determination by HPLC/UV method for sample analysis.
• Speed of rotation: 50 rpm • Test medium: […] • Volume of test medium: 75 mL • Temperature: 37±0.5° C. Sampling Time points 5, 10, 15, 20, 25, 30, 45, 60 minutes
Procedure: The concentration maximum is taken as kinetic solubility value.
(§1) Melt extrudates were prepared according to example 1. The kinetic solubility and the physical state of the compound of formula (I) were determined. […] Kinetic solubility were determined by adding melt extrudates equivalent to 100 mg of the compound of formula (I) in pH 6.8 phosphate buffer using a rotating bottle at 50 rpm and at a temperature of 37° C. The physical state (crystalline or amorphous) was determined by XRPD (discrete peaks indicating some of the material being in a crystalline state, absence of peaks indicating amorphous state).

[3] = Physical state of compound of formula (I) in melt extrudates by XRPD
Method: X-Ray Powder Diffraction (XRPD) Analysis
• Principle: X-ray powder diffraction (XRPD) in reflection geometry • Equipment: Powder diffractomer e.g. type Bruker D8 Discover • Procedure: Place the test substance on the specimen holder. Record the X-ray diffraction pattern between 5° and 40° (2-theta) with Cu Kα radiation (1.5406 Å) in reflection geometry using the following conditions • Detector type: Lynx Eye • High voltage: 40 kV • Current: 40 mA • Scan type: continuous • Step time: 0.3 s • Step size: 0.016° • Soller slit: 2.5° • Slits: 0.6 mm • Method: A part of the sample is used without preparation for the measurement. […] Record the X-ray diffraction pattern between 5° and 40° (2Theta) with CuKα radiation. • Evaluation: Observe the recorded diffractogram and report any detectable diffraction peak. […]
as §1

Compound: C[C@H]1OC(=O)N(c2cc(-c3cnc(N)nc3C(F)(F)F)nc(N3CCOCC3)n2)[C@H]1CO [compound of formula (I), (4S,5R)-3-(2′-Amino-2-morpholin-4-yl-4′-trifluoromethyl-[4,5]bipyrimidinyl-6-yl)-4-hydroxymethyl-5-methyl-oxazolidin-2-one]
- processing temperature leading to degradation of compound of formula (I) [1]: exceeding 205 °C
- solubility kinetic [2]: ~40 µg/mL
- Physical state of compound of formula (I) (XRPD) [3]: Crystalline
